Results taken from US20010025018A1, “Antimicrobial activity of laccases” (priority 1997, published 2001).

Legend:
[1] = system: Pseudomonas aeruginosa (ATCC10145); experiment: Bactericidal activity of laccase/enhancer systems, Malthus conductance enumeration of surviving cells; type: cell-based; conditions: for Bactericidal activity (log(cfu/ml)=the logarithm to the number of killed cells): enhancer 0.1 mM with rPpL or rMtL 3 mg/L, 20 min, approx. 10^4 cfu/ml
Protocol: (§1) Bactericidal activity was evaluated in 0.05 M MES-buffer (2-[N-morpholino]ethanesulfonic acid) (pH 6), which were flushed with air for 5 min before filter sterilisation. The bactericidal activity was determined against Pseudomonas aeruginosa (ATCC10145) and Staphylococcus epidermidis (DSM20042). Cells were grown in Tryptone Soya Broth (Oxoid CM129) at 30° C. for 24 h and diluted in the MES-buffer to a final cell concentration of approximately 10^4 cfu/ml. The cell suspensions were mixed with laccase (3 mg/L) and enhancer (0.1 mM) for 20 min at 40° C. The bactericidal activity was determined by incubation in Malthus. Detection times measured by the Malthus instrument were converted to cfu/ml by a calibration curve. Either direct or indirect Malthus measurements were used when enumerating total survival cells (Malthus Flexi M2060, Malthus Instrument Limited). By the direct measurements, the cell metabolism was determined by conductance measurements in the growth substrate. By the indirect measurements, 3 ml of growth medium was transferred to the outer chamber of the indirect Malthus cells, and 0.5 ml of sterile KOH (0.1 M) was transferred to the inner chamber. The cell suspensions were after enzyme treatment transferred to the outer chamber of the Malthus cell. As cells are growing in the outer chamber they produce CO2 which will dissolve in the KOH in the inner chamber and thereby change the conductance of the KOH. The amount of CO2 formed by the respiring cells surviving the enzyme treatment was used for estimating the number of viable cells. When the conductance change is measurable by the Malthus, a detection time (dt) will be recorded. The dt-s were converted to colony counts by use of a calibration curve relating cfu/ml to dt (Johansen et al. 1995. Journal of Applied Bacteriology 78:297-303, Johansen et al. 1997, Applied and Environmental Microbiology 63:3724-3728).
Antimicrobial activity (i.e. bactericidal activity) of Myceliophthera laccase (rMtL) and methylsyringate (MeS) was determined using a 32 factorial design at pH 6 at 40° C. in MES-buffer as described in example 1, however, a higher cell concentration was used (10^7-10^8 cfu/ml). Tested rMtL levels was 0-2,5-5 mg/L and MeS levels was 0-5-10 mM.
Antimicrobial activity (i.e. bactericidal activity) of Myceliophthera laccase (rMtL) and Polyporus laccase (rPpL) was determined against Staphylococcus epidermidis at pH 6 in MES-buffer as described in example 1, the laccases was used in the concentration of 3 mg/L. Acetosyringon, methylsyringate, ethylsyringate, butylsyringate and laurylsyringate were evaluated as electron-donors in the concentration of 0.2 mM.
Antimicrobial activity of laccases with two enhancers was determined against Pseudomonas aeruginosa (ATCC 10145) and Staphylococcus epidermidis (DSM 20042) at pH 6 as described in example 1. Methylsyringate and acetosyringon was used as enhancers and the laccase was rPpL (1 mg/L) and the antimicrobial activity was determined by use of a 32 factorial experimental design.

[2] = system: Staphylococcus epidermidis (DSM20042); experiment: as above; type: cell-based; conditions: for Bactericidal activity (log(cfu/ml)=the logarithm to the number of killed cells): enhancer 0.1 mM with rPpL or rMtL 3 mg/L, 20 min, approx. 10^4 cfu/ml; for Bactericidal activity (log(cfu/ml)=the logarithm to the number of killed cells) / bactericidal activity when combined with laccase / bactericidal activity without laccase / bactericidal activity when combined with Polyporus laccase: pH 6, 40° C.; for bactericidal activity when combined with laccase: laccase (rMtL or rPpL) 3 mg/L; for bactericidal activity when combined with laccase / bactericidal activity without laccase / bactericidal activity when combined with Polyporus laccase: 20 minutes; for bactericidal activity without laccase: no laccase; for bactericidal activity when combined with Polyporus laccase: rPpL 3 mg/L
Protocol: as §1, with “63:3724-3728). […]” for “63:3724-3728).”

Structure (SMILES) | Bactericidal activity (log(cfu/ml)=the logarithm to the number of killed cells) ([1]; pH 6, 40° C.) | Bactericidal activity (log(cfu/ml)=the logarithm to the number of killed cells) [2] | bactericidal activity when combined with Polyporus laccase ([2]; enhancer 0.2 mM) | also measured
O=C(O)CCN1c2ccccc2Sc2ccccc21 [PPT, reference compound] | None of the other enhancers resulted in bactericidal activity | None of the other enhancers resulted in bactericidal activity | – | –
COc1cc(C(C)=O)cc(OC)c1O [acetosyringon] | – | – | 100% | bactericidal activity, comparison of the syringate-compounds as enhancers ([1]; different syringate-compounds with laccase): most bactericidal enhancer; cell reduction ([1]; with rPpL (1 mg/L), pH 6, 40° C.): approximately 1.5 log units; bactericidal activity when combined with laccase ([2]; enhancer 0.2 mM): significantly increased; bactericidal activity without laccase ([2]; enhancer 0.2 mM): did also show bactericidal activity; bactericidal activity with Myceliophthera laccase ([2]; enhancer 0.2 mM, rMtL 3 mg/L, pH 6, compared to Polyporus laccase and to the other syringate compounds): decreased
CCCCOC(=O)c1cc(OC)c(O)c(OC)c1 [butylsyringate] | – | – | 100% | –
O=C(/C=C/c1ccc(O)c(O)c1)O[C@@H]1C[C@](O)(C(=O)O)C[C@@H](O)[C@H]1O [chlorogenic acid, reference compound] | None of the other enhancers resulted in bactericidal activity | None of the other enhancers resulted in bactericidal activity | – | –
O=C(O)C=Cc1ccccc1 [cinnamic acid, reference compound] | None of the other enhancers resulted in bactericidal activity | None of the other enhancers resulted in bactericidal activity | – | –
CCOC(=O)c1cc(OC)c(O)c(OC)c1 [ethylsyringate] | – | – | 100% | –
CCCCCCCCCCCCOC(=O)c1cc(OC)c(O)c(OC)c1 [laurylsyringate] | – | – | – | bactericidal activity when combined with laccase ([2]; enhancer 0.2 mM): significantly increased; bactericidal activity without laccase ([2]; enhancer 0.2 mM): did also show bactericidal activity
COc1cc(C=O)cc(OC)c1O [syringaldehyde] | None of the other enhancers resulted in bactericidal activity | None of the other enhancers resulted in bactericidal activity | – | –
